# Measurements published in paper PMC2185977 (The Journal of Experimental Medicine, 1980).
# Columns and labels:
# IgMWEA [1] = assay: Quantitative precipitin inhibition, IgMWEA + Bacto agar 20C extract; format: binding, human; conditions: for times more active than sodium pyruvate on a molar basis: inhibiting precipitation of IgMWEA by agar; for inhibition of precipitation of IgMWEA by agar: even at 100 μmol inhibitor
# IgMMAY = assay: Quantitative precipitin inhibition, IgMMAY + Klebsiella K21; format: binding, human; conditions: for times more active than pyruvate in inhibiting the Klebsiella K21 precipitin reaction: IgMMAY; for inhibition of precipitation of IgMMAY by Klebsiella K21: 25 μl 1:5 dilution IgMMAY + 1.6 μg Klebsiella K21, Fig. 3B
# IgMWEA [2] = assay: Precipitin inhibition, IgMWEA-Helix pomatia galactan; format: binding, human; conditions: data not shown
# IgMWEA [3] = assay: Quantitative precipitin reaction of purified IgMWEA with polysaccharides; format: binding, human; conditions: ~8 μg N purified IgMWEA, total volume 350 μl, Fig. 1A
# anti-Klebsiella K11 = conditions: cited from earlier work
Molecule,precipitin reaction with IgMWEA (IgMWEA [3]),inhibition of precipitation of IgMMAY by Klebsiella K21 (IgMMAY),other results
"CO[C@@H]1O[C@@H]2COC(C)(C(=O)O)O[C@@H]2[C@H](O)[C@H]1O (single isomer, unassigned) [methyl 4,6pyDGalβ R isomer, methyl 4,6-O-(1-carboxyethylidene) ~-o-galactopyranoside]",–,–,times more active than sodium pyruvate on a molar basis (IgMWEA [1]): > 20 times; times more active than pyruvate in inhibiting the Klebsiella K21 precipitin reaction (IgMMAY): 150 times
CC(O)C(=O)[O-].[Na+] (stereo not shown) [sodium lactate],–,–,inhibition of precipitin reaction of IgMWEA-Helix pomatia galactan (IgMWEA [2]): inactive
xanthan gum,failed to precipitate,–,–
"CO[C@H]1O[C@H](CO)[C@H](O)[C@H](O)[C@H]1O [methyl α-DGal, methyl a-DGal]",–,no inhibition,inhibition of precipitation of IgMWEA by agar (IgMWEA [1]): no inhibition
CCC(=O)[O-].[Na+] [sodium propionate],–,–,inhibition of precipitin reaction of IgMWEA-Helix pomatia galactan (IgMWEA [2]): inactive
"CO[C@H]1O[C@@H]2CO[C@@](C)(C(=O)O)O[C@@H]2[C@H](O)[C@H]1O (single isomer, unassigned) [methyl 4,6pyDGalα S isomer]",–,inactive,inhibition of Klebsiella K11-anti-Klebsiella K11 (anti-Klebsiella K11): does not inhibit
agarose,inactive,–,–
"COC1OC(CO)C(O)C(O)C1O (stereo not drawn) [methyl β-DGal, methyl /~-DGal]",–,no inhibition,inhibition of precipitation of IgMWEA by agar (IgMWEA [1]): no inhibition
dextran sulfate,did react,–,–
keratosulfate,failed to precipitate,–,–
"O=P(O)(O)O[C@H]1O[C@H](CO)[C@@H](O)[C@H](O)[C@H]1O [D-glucose-1-phosphate, D-glucose-l-phosphate]",–,no inhibition,–
O=C[C@H](O)[C@@H](O)[C@@H](O)[C@H](O)COP(=O)(O)O [D-galactose-6-phosphate],–,no inhibition,–
"CO[C@H]1O[C@@H]2CO[C@@](C)(C(=O)O)O[C@@H]2[C@H](O)[C@H]1O (single isomer, unassigned) [methyl 4,6pyDGalα R isomer]",–,–,times more active than sodium pyruvate on a molar basis (IgMWEA [1]): > 20 times; times more active than pyruvate in inhibiting the Klebsiella K21 precipitin reaction (IgMMAY): 150 times
heparin,failed to precipitate,–,–
"CC(=O)C(=O)O [sodium pyruvate, Sodium pyruvate]",–,better than lactate and propionate,inhibition of precipitin reaction of IgMWEA-Helix pomatia galactan (IgMWEA [2]): inhibited
Larch arabinogalactan,inactive,–,–
"O=C[C@H](O)[C@@H](O)[C@@H](O)[C@H](O)CO [DGal, D-galactose]",–,"Neither DGal, its methyl a- and/~-glycosides, nor any of the other neutral sugars tested gave any inhibition",inhibition of precipitation of IgMWEA by agar (IgMWEA [1]): no inhibition
O=P(O)(O)O[C@H]1O[C@H](CO)[C@H](O)[C@H](O)[C@H]1O [D-galactose-1-phosphate],–,no inhibition,–
